Where only a bound is given, the exact number is not on record here.

For this assay, the target named is mGluR4 (UniProt Q14833). Briefly: mGluR4 potentiation assay: increase in response to an EC20 concentration of agonist (species not given). It counts as cell-based. The settings on record: EC50 for potentiation of mGluR4; table does not state human or rat. The method, then: The disclosed compounds and compositions can be evaluated for their ability to act as a potentiator of metabotropic glutamate receptor activity, in particular mGluR4 activity, by any suitable known methodology known in the art. For example, Chinese Hamster Ovary (CHO) cells transfected with human mGluR4 or […] co-transfected with rat mGluR4 and the G-protein regulated Inwardly Rectifying Potassium channel (GIRK) were plated in clear bottom assay plates for assay in a Hamamatsu FDSS Fluorometric Plate Reader. The cells were loaded with either a Ca2+-sensitive fluorescent dye or the thallium responsive dye and the plates were washed and placed into a suitable kinetic plate reader. For human mGluR4 assays, a fluorescence baseline was established for 3-5 seconds, the disclosed compounds were then added to the cells, and the response in cells was measured. Approximately two and a half minutes later, a concentration of mGluR4 orthosteric agonist (e.g. glutamate or L-AP4) eliciting approximately 20% (EC20) of the maximal agonist response was added to the cells, and the response was measured. Two minutes later, a concentration of mGluR4 agonist (e.g. glutamate or L-AP4) eliciting 80% (EC80) of the maximal agonist response was added to the cells, and the response was measured. For rat mGluR4/GIRK experiments, a baseline was established for approximately five seconds, disclosed compounds were added, and either an EC20 or EC80 concentration of agonist was added approximately two and one half minutes later. Potentiation of the agonist response of mGluR4 by the disclosed compounds was observed as an increase in response to the EC20 concentration of agonist in the presence of compound compared to the response to agonist in the absence of compound. Similarly, antagonism of the agonist response of mGluR4 by the disclosed compounds was observed as a decrease in response to the EC80 concentration of agonist in the presence of compound compared to the response to agonist in the absence of compound.
The above described assay operated in two modes. In the first mode, a range of concentrations of the disclosed compounds are added to cells, followed by a single fixed concentration of agonist. If the compound acts as a potentiator, an EC50 value for potentiation and a maximum extent of potentiation by the compound at this concentration of agonist is determined by non-linear curve fitting. If the compound acts as a noncompetitive antagonist, an IC50 value is determined by non-linear curve fitting. In the second mode, several fixed concentrations of the disclosed compounds are added to various wells on a plate, followed by a range in concentrations of agonist for each concentration of disclosed compound. The EC50 values for the agonist at each concentration of compound are determined by non-linear curve fitting. A decrease in the EC50 value of the agonist with increasing concentrations of the sample compound (a leftward shift of the agonist concentration-response curve) is an indication of the degree of mGluR4 potentiation at a given concentration of the sample compound. A decrease in the maximal response of the agonist with increasing concentrations of the sample compounds, with or without a rightward shift in agonist potency, is an indication of the degree of noncompetitive antagonism at mGluR4. The second mode also indicates whether the sample compounds also affect the maximum response to mGluR4 to agonists.
These compounds are positive allosteric modulators (potentiators) of human and rat mGluR4 and were selective for mGluR4 compared to the other seven subtypes of metabotropic glutamate receptors.
What is called EC50 is the concentration at which the effect is half-maximal. For the compound `c1cnc2c(Nc3ccc4[nH]ncc4c3)n[nH]c2c1` [Example 88, N-(1H-indazol-5-yl)-1H-pyrazolo[4,3-b]pyridin-3-amine], the EC50 is 72 nM. As to `Cn1nc(C2(C)CC2)c2ccc(Nc3n[nH]c4nccnc34)cc21` [Example 29, N-(1-methyl-3-(1-methylcyclopropyl)-1H-indazol-6-yl)-1H-pyrazolo[3,4-b]pyrazin-3-amine], the EC50 turned out to be 25 nM. As for `Cc1c2cc(Nc3n[nH]c4cccnc34)ccc2nn1C(C)(C)C` [Example 98, N-(2-(tert-butyl)-3-methyl-2H-indazol-5-yl)-1H-pyrazolo[4,3-b]pyridin-3-amine], the EC50 is over 10000 nM.

In the case of `Cc1nn(C)c2ccc(Nc3n[nH]c4nccnc34)cc12` [Example 99, N-(1,3-dimethyl-1H-indazol-5-yl)-1H-pyrazolo[3,4-b]pyrazin-3-amine], the concentration for a half-maximal effect (EC50) is 757 nM. Regarding `CCCCn1nc(C)c2cc(Nc3n[nH]c4cccnc34)ccc21` [Example 114, N-(1-butyl-3-methyl-1H-indazol-5-yl)-1H-pyrazolo[4,3-b]pyridin-3-amine], the EC50 was 45 nM.

With `Cc1nn(C(C)C)c2cc(Nc3n[nH]c4c3CCCC4)ccc12` [Example 20, 1-isopropyl-3-methyl-N-(4,5,6,7-tetrahydro-1H-indazol-3-yl)-1H-indazol-6-amine], the 50% effective concentration (EC50) is over 10000 nM. With `CC(C)n1nc(C2CC2)c2ccc(Nc3n[nH]c4nccnc34)cc21` [Example 17, N-(3-cyclopropyl-1-isopropyl-1H-indazol-6-yl)-1H-pyrazolo[3,4-b]pyrazin-3-amine], the EC50 was over 10000 nM. As to `Cn1ncc2cc(Nc3n[nH]c4nccnc34)ccc21` [Example 84], the EC50 worked out at 818 nM. For `Cc1nn(CC2CC2)c2ncc(Nc3n[nH]c4cccnc34)cc12` [Example 257, 1-(cyclopropylmethyl)-3-methyl-N-(1H-pyrazolo[4,3-b]pyridin-3-yl)pyrazolo[3,4-b]pyridin-5-amine], the EC50 is over 10000 nM. As for `Cn1nc(OCCN2CCOCC2)c2ccc(Nc3n[nH]c4cccnc34)cc21` [Example 217, N-[1-methyl-3-(2-morpholinoethoxy)indazol-6-yl]-1H-pyrazolo[4,3-b]pyridin-3-amine], the concentration giving a half-maximal response (EC50) came to 238 nM.

For the compound `COc1cc(Nc2n[nH]c3cccnc23)cc2c1cnn2C` [Example 52, N-(4-methoxy-1-methyl-1H-indazol-6-yl)-1H-pyrazolo[4,3-b]pyridin-3-amine], the EC50 turned out to be 718 nM. Consider `[2H]C([2H])([2H])n1nc(C2CC2)c2ccc(Nc3n[nH]c4cccnc34)cc21` [Example 23, N-(3-cyclopropyl-1-(methyl-d3)-1H-indazol-6-yl)-1H-pyrazolo[4,3-b]pyridin-3-amine], for which the EC50 was found to be 36 nM. Take `CCn1nc(Cl)c2cc(Nc3n[nH]c4cccnc34)ccc21` [Example 141, N-(3-chloro-1-ethyl-1H-indazol-5-yl)-1H-pyrazolo[4,3-b]pyridin-3-amine]: the EC50 worked out at 815 nM.

Turning to `Cn1ncc2cc(Nc3n[nH]c4cccnc34)ccc21` [Example 55, N-(1-methyl-1H-indazol-5-yl)-1H-pyrazolo[4,3-b]pyridin-3-amine], the 50% effective concentration (EC50) came to 790 nM.

As for `CC[C@H](C)Cn1nc(C)c2cc(Nc3n[nH]c4cccnc34)cnc21` [Example 155, 3-methyl-1-[(2S)-2-methylbutyl]-N-(1H-pyrazolo[4,3-b]pyridin-3-yl)pyrazolo[3,4-b]pyridin-5-amine], the EC50 worked out at 160 nM.

Consider `Cn1nc(C(=O)NC2CC(F)(F)C2)c2ccc(Nc3n[nH]c4cccnc34)cc21` [Example 174], for which the EC50 came to 116 nM. Then `Clc1nn(CC2CC2)c2ccc(Nc3n[nH]c4cccnc34)cc12` [Example 284, N-(3-chloro-1-(cyclopropylmethyl)-1H-indazol-5-yl)-1H-pyrazolo[4,3-b]pyridin-3-amine], with over 10000 nM. With `CC(C)n1ncc2cc(Nc3n[nH]c4cccnc34)cnc21` [Example 152, N-(1-isopropyl-1H-pyrazolo[3,4-b]pyridin-5-yl)-1H-pyrazolo[4,3-b]pyridin-3-amine], the EC50 stood at 371 nM. Then `Cn1nc(C(=O)N2CCOCC2)c2ccc(Nc3n[nH]c4cccnc34)cc21` [Example 167, [1-methyl-6-(1H-pyrazolo[4,3-b]pyridin-3-ylamino)indazol-3-yl]-morpholino-methanone], with 1580 nM; and `Cn1ncc2ncc(Nc3n[nH]c4nccnc34)cc21` [Example 148, N-(1-methyl-1H-pyrazolo[4,3-b]pyridin-6-yl)-1H-pyrazolo[3,4-b]pyrazin-3-amine], with 3530 nM; and `C=CCn1nc(C)c2cc(Nc3n[nH]c4cccnc34)ccc21` [Example 109, N-(1-allyl-3-methyl-1H-indazol-5-yl)-1H-pyrazolo[4,3-b]pyridin-3-amine], with 59 nM. For `Cc1nn(CCO)c2ccc(Nc3n[nH]c4cccnc34)cc12` [Example 94, 2-(5-((1H-pyrazolo[4,3-b]pyridin-3-yl)amino)-3-methyl-1H-indazol-1-yl)ethan-1-ol], the EC50 was over 10000 nM. On to `Cc1cc(Cn2ncc3ncc(Nc4n[nH]c5nccnc45)cc32)no1` [Example 143, N-(1-((5-methylisoxazol-3-yl)methyl)-1H-pyrazolo[4,3-b]pyridin-6-yl)-1H-pyrazolo[3,4-b]pyrazin-3-amine], for which the EC50 was over 10000 nM. Turning to `Cc1nn(C2CCC2)c2ccc(Nc3n[nH]c4cccnc34)cc12` [Example 107, N-(1-cyclobutyl-3-methyl-1H-indazol-5-yl)-1H-pyrazolo[4,3-b]pyridin-3-amine], the EC50 is 374 nM. Take `Cc1nn(CC(F)(F)F)c2ccc(Nc3n[nH]c4cccnc34)cc12` [Example 116, N-(3-methyl-1-(2,2,2-trifluoroethyl)-1H-indazol-5-yl)-1H-pyrazolo[4,3-b]pyridin-3-amine]: the EC50 turned out to be 96 nM.

For `COC(=O)CCCNc1nn(C)c2cc(Nc3n[nH]c4cccnc34)ccc12` [Example 38, methyl 4-((6-((1H-pyrazolo[4,3-b]pyridin-3-yl)amino)-1-methyl-1H-indazol-3-yl)amino)butanoate], the EC50 is 263 nM.

Turning to `Cn1nc(OCCN2CCOCC2)c2c(Cl)cc(Nc3n[nH]c4cccnc34)cc21` [Example 209, N-[4-chloro-1-methyl-3-(2-morpholinoethoxy)indazol-6-yl]-1H-pyrazolo[4,3-b]pyridin-3-amine], the EC50 came to 322 nM. As for `CC(C)COc1nn(C)c2cc(Nc3n[nH]c4cccnc34)ccc12` [Example 244, N-(3-isobutoxy-1-methyl-1H-indazol-6-yl)-1H-pyrazolo[4,3-b]pyridin-3-amine], the EC50 was found to be 231 nM.

Consider `Cc1cc(Cn2nc(C)c3cc(Nc4n[nH]c5ccccc45)ccc32)no1` [Example 78, N-(3-methyl-1-((5-methylisoxazol-3-yl)methyl)-1H-indazol-5-yl)-1H-indazol-3-amine], for which the EC50 stood at 129 nM. As to `c1cnc2c(Nc3cccc4c3cnn4CC3CCC3)n[nH]c2c1` [Example 34, N-(1-(cyclobutylmethyl)-1H-indazol-4-yl)-1H-pyrazolo[4,3-b]pyridin-3-amine], the EC50 came to 4300 nM. As for `Cc1c2cc(Nc3n[nH]c4cccnc34)ccc2nn1C(C)C` [Example 59, N-(2-isopropyl-3-methyl-2H-indazol-5-yl)-1H-pyrazolo[4,3-b]pyridin-3-amine], the EC50 is over 10000 nM. With `Cn1nc(NC(=O)C(F)(F)F)c2ccc(Nc3n[nH]c4cccnc34)cc21` [Example 25, N-(6-((1H-pyrazolo[4,3-b]pyridin-3-yl)amino)-1-methyl-1H-indazol-3-yl)-2,2,2-trifluoroacetamide], the EC50 was 313 nM.

In the case of `Cn1nc(C(=O)NCCCS(C)(=O)=O)c2ccc(Nc3n[nH]c4cccnc34)cc21` [Example 169, 1-methyl-N-(3-methylsulfonylpropyl)-6-(1H-pyrazolo[4,3-b]pyridin-3-ylamino)indazole-3-carboxamide], the concentration for a half-maximal effect (EC50) worked out at 4610 nM. Turning to `Cc1nn(CC2CCC2)c2ncc(Nc3n[nH]c4cccnc34)cc12` [Example 156, 1-(cyclobutylmethyl)-3-methyl-N-(1H-pyrazolo[4,3-b]pyridin-3-yl)pyrazolo[3,4-b]pyridin-5-amine], the EC50 came out at 110 nM.

These data come from patent US10526323B2, “Indazole and azaindazole substituted compounds as mGluR4 allosteric potentiators, compositions, and methods of treating neurological dysfunction” (Vanderbilt University, priority 2015, dated 2020).
